Structures can show the parent of a compound that is named as a salt. Where two headings read alike, the source gives them in different places.
Key:
[1] = Test Example 3: solubility in distilled water; assay type: physicochemical
Text: The solubility of the water-soluble prodrugs obtained in the Examples (compounds 1A to 8A) in distilled water was compared to the solubility of (9S)-9-ethyl-9-hydroxy-1-pentyl-1H,12H-pyrano[3″,4″:6′,7′]indolizino[1′,2′:6,5]pyrido[4,3,2-de]quinazoline-10,13 (9H,15H)-dione (representative compound in Patent document 2: reference compound 1).

[2] = test system: human colon cancer cell line HCT116; assay: Test Example 4: antitumor effect in HCT116 tumor-bearing nude mice; assay type: in vivo, BALB/c nude mice; details: once per week for three weeks
Procedure: Antitumor effects were determined for representative examples of the group of compounds of the present invention. Tumor-bearing mice were generated by subcutaneous transplantation of human colon cancer cell line HCT116 obtained from American Type Culture Collection (Virginia, USA) into the right flank of BALB/c nude mice purchased from Charles River Japan, and used for determination of antitumor effects.
After a one-week quarantine period, the purchased nude mice were subjected to subcutaneous transplantation of 5×10^6 HCT116 cells at their right flank. Mice with a tumor size reaching 200 mm^3 or so were subjected to the experiment.
The compounds were dissolved in 1 mM citric bufferes saline, pH 4, and administered intravenously. The administration was carried out once per week for three weeks, for a total of three administrations. The antitumor effect was determined as tumor growth inhibition (TGI) using the following equation. Tumor growth inhibition (TGI) (%)={(1−mean tumor volume change in the drug-treated group/mean tumor volume change in the control group)×100} The results are shown in Table 6.

[3] = Comparative Test Example 1: conversion of reference compound 2 in human sera; assay type: in vitro ADME; details: FIG. 6
Procedure: (§1) Compound 2A was incubated at 37° C. at a concentration of 50 μM in sera of humans, mice, monkeys, and dogs. Incubation was terminated at a given time (0, 30, 60, 120, and 360 minutes), and the samples were analyzed by HPLC after deproteinization treatments.
(§2) Conditions for the HPLC analysis are as follows: • HPLC conditions • Column: Develosil C30-UG-3, 3 μm, 50×4.6 mm I.D • Column Temperature: constant temperature at approximately 25° C. • Mobile phase: A: 10 mM phosphate buffer (pH4.7) • B: acetonitrile • /B (min): 90/10(0)→90/10(0.4)→40/60(6)→2/98(8)→90/10(9)→90/10(15)
(§3) Flow rate: 1.0 mL/min • Detection: photodiode array detector, detection wavelength 350 nm • Amount injected: 30 μL
(§4) Similar to Examination 1, the percent changes of (9S)-9-ethyl-9-(tryptophyl-γ-glutamyloxy)-1-pentyl-1H,12H-pyrano[3″,4″:6′,7′]indolizino[1′,2′:6,5]pyrido[4,3,2-de]quinazoline-10,13(9H,15H)-dione [representative compound (Q) in Patent document 1: reference compound 2] being converted in the lactone form and the carboxylate form over time in human and mouse sera were determined.

[4] = Comparative Test Example 1: conversion of reference compound 2 in mouse sera; assay type: in vitro ADME; details: FIG. 7
Procedure: as §1, §2, §3, §4

[5] = distilled water, read-out: Solubility in distilled water

CCCCCN1C=Nc2cccc3nc4c(c1c23)Cn1c-4cc2c(c1=O)COC(=O)[C@@]2(CC)OC(=O)CN(C)CCNC.Cl [Compound 1A, (9S)-9-Ethyl-9-{[methyl-(2-methylamino-ethyl)-amino]-acetoxy}-1-pentyl-1H,12H-pyrano[3″,4″:6′,7′]indolizino[1′,2′:6,5]pyrido[4,3,2-de]quinazoline-10,13(9H,15H)-dione hydrochloride]
solubility [1, 5]: > 10 mg/mL

CCCCCN1C=Nc2cccc3nc4c(c1c23)Cn1c-4cc2c(c1=O)COC(=O)[C@@]2(CC)OC(=O)CN(C)CCN.Cl [Compound 3A, (9S)-9-{[(2-Amino-ethyl)-methyl-amino]-acetoxy}-9-ethyl-1-pentyl-1H,12H-pyrano[3″,4″:6′,7′]indolizino[1′,2′:6,5]pyrido[4,3,2-de]quinazoline-10,13(9H,15H)-dione hydrochloride]
solubility [1, 5]: > 10 mg/mL

CCCCCN1C=Nc2cccc3nc4c(c1c23)Cn1c-4cc2c(c1=O)COC(=O)[C@@]2(CC)OC(=O)CN(C)C(=O)CNC.Cl [Compound 4A, (9S)-9-Ethyl-9-(sarcosyl-sarcosyloxy)-1-pentyl-1H,12H-pyrano[3″,4″:6′,7′]indolizino[1′,2′:6,5]pyrido[4,3,2-de]quinazoline-10,13(9H,15H)-dione hydrochloride]
solubility [1, 5]: > 10 mg/mL

CC[C@@]1(OC(=O)CN(C)C(=O)CN)C(=O)OCc2c1cc1n(c2=O)Cc2cc3ccccc3nc2-1.Cl [Compound 5A, (aminoacetyl-methyl-amino)-acetic acid (S)-4-ethyl-3,13-dioxo-3,4,12,13-tetrahydro-1H-2-oxa-6,12a-diaza-dibenzo[b,h]fluoren-4-yl ester hydrochloride]
solubility [1, 5]: > 10 mg/mL

CCCCCN1C=Nc2cccc3nc4c(c1c23)Cn1c-4cc2c(c1=O)COC(=O)[C@@]2(CC)OC(=O)OCCS(=O)(=O)C[C@H](N)C(=O)OC [Compound 6A, (9S)-9-{2-[(R-2-Amino-2-methoxycarbonyl)ethanesulfonyl]ethoxycarbonyloxy}-9-ethyl-1-pentyl-1H,12H-pyrano[3″,4″:6′,7′]indolizino[1′,2′:6,5]pyrido[4,3,2-de]quinazoline-10,13(9H,15H)-dione trifluoroacetic acid salt]
solubility [1, 5]: > 10 mg/mL

CCCCCN1C=Nc2cccc3nc4c(c1c23)Cn1c-4cc2c(c1=O)COC(=O)[C@@]2(CC)OC(=O)OCCS(=O)(=O)CCN.Cl [Compound 8A, (9S)-9-[2-(2-Aminoethanesulfonyl)ethoxycarbonyloxy]-9-ethyl-1-pentyl-1H,12H-pyrano[3″,4″: 6′,7′]indolizino[1′,2′:6,5]pyrido[4,3,2-de]quinazoline-10,13(9H,15H)-dione hydrochloride]
solubility [1, 5]: > 10 mg/mL
TGI (%) on Day 21 ([2]; 0.9 mg/kg intravenously): 41%
TGI (%) on Day 21 ([2]; 1.9 mg/kg intravenously): 53%
TGI (%) on Day 21 ([2]; 3.75 mg/kg intravenously): 55%
TGI (%) on Day 21 ([2]; 7.5 mg/kg intravenously): 61%
TGI (%) on Day 21 ([2]; 15 mg/kg intravenously): 78%
TGI (%) on Day 21 ([2]; 30 mg/kg intravenously): 96%
TGI (%) on Day 21 ([2]; 60 mg/kg intravenously): 106%

CCCCCN1C=Nc2cccc3nc4c(c1c23)Cn1c-4cc2c(c1=O)COC(=O)[C@]2(O)CC [Reference compound 1, (9S)-9-ethyl-9-hydroxy-1-pentyl-1H,12H-pyrano[3″,4″:6′,7′]indolizino[1′,2′:6,5]pyrido[4,3,2-de]quinazoline-10,13 (9H,15H)-dione, reference compound]
solubility ([1]; water): < 0.01 mg/mL

CCCCCN1C=Nc2cccc3nc4c(c1c23)Cn1c-4cc2c(c1=O)COC(=O)[C@@]2(CC)OC(=O)CC[C@H](NC(=O)[C@@H](N)Cc1c[nH]c2ccccc12)C(=O)O [reference compound 2, (9S)-9-ethyl-9-(tryptophyl-γ-glutamyloxy)-1-pentyl-1H,12H-pyrano[3″,4″:6′,7′]indolizino[1′,2′:6,5]pyrido[4,3,2-de]quinazoline-10,13(9H,15H)-dione]
conversion rate and efficiency into the lactone form and the carboxylate form [3]: low
conversion rate and efficiency into the lactone form and the carboxylate form [4]: low
